# Measured values from paper PMC6222780, “Synthesis, Spectroscopic Analysis and Assessment of the Biological Activity of New Hydrazine and Hydrazide Derivatives of 3-Formylchromone” (Molecules : A Journal of Synthetic Chemistry and Natural …, 2018).
# Columns and labels:
# [1] = system: Staphylococcus epidermidis ATCC 12228; assay: Disc diffusion, inhibition of growth zones; type: cell-based; details: S. epidermidis; discs at 100 or 200 µg/mL, 24 h at 37 °C
# Procedure: (§1) Fifteen strains of microorganisms from different species were used. The growth inhibition zones were evaluated in two independent experiments (n = 2 in each of them), and the potential inhibitors of microbial growth are presented in Table 3. The hydrazine and hydrazide derivatives of 3-formylchromone constitute a class of potential antimicrobial agents and are worthy of further investigation. […] In case of N. meningitidis (result with *) the action of 9 was noted just for 100 µg/mL and the influence in concentration of 200 µg/mL was not observed.
# (§2) The microbial reference strains representing different families of bacteria and fungi, pathogenic for man and animals, were used. The 15 strains were derived from international microbial collections held by the Department of Pharmaceutical Microbiology and Microbiological Diagnostics of the Medical University of Lodz: Candida albicans ATCC 10231, Enterococcus faecalis ATCC 29212, Klebsiella pneumoniae ATCC 700603, Pseudomonas aeruginosa NCTC 6749, Proteus vulgaris CCM 1799, Staphylococcus epidermidis ATCC 12228, Shigella flexneri ATCC 12022, Streptococcus pneumoniae ATCC 49619, Streptococcus pyogenes ATCC 19615, Corynebacterium jeikeium K411, Escherichia coli ATCC 25922, Staphylococcus aureus NCTC 4135, Streptococcus dysgalactiae subsp. equisimilis ATCC 12394, Neisseria meningitidis DSM 25942, Listeria monocytogenes PCM 2191.
# (§3) The strains were stored at −80 °C, frozen in a 1:1 mixture of Brain Heart Infusion (BHI) broth and glycerol. The reference strains, depending on the growth requirements, were grown on a solid medium—nutrient agar, nutrient agar with 5% addition of lambs defibrinated blood or (in the case of Corynebacterium jeikeium) Triptic Soy Agar (TSA) with the addition of sheep blood, yeast extract and Tween-80. The susceptibility of the strains to chemical compounds was measured analogously to the adopted method of diffusion and disc preparation of antibiotics for compounds introduced into treatment. After receiving the pure culture of the reference strain, obtained from frozen samples and grown on the appropriate medium for growth requirements, suspensions of the tested strains were prepared in a physiological NaCl solution with a density of 0.5 on the McFarland scale. These suspensions were seeded with a cotton ball over the entire surface of the test medium. Discs impregnated with the test compound at a concentration of 100 or 200 µg/mL were then placed on it and incubated for 24 h at 37 °C.
# [2] = system: L929 cell line (mouse fibroblast cell line); assay: XTT assay, cell proliferation study; type: cell-based; details: for IC50 / The Range of Influence [%, Control = 100%] / Stimulating effect on proliferation: L929, XTT; for IC50: 24 h incubation, 0.01–1250 µmol/L; for The Range of Influence [%, Control = 100%]: viability over 0.01–1250 µmol/L
# Procedure: (§4) Four independent experiments (n = 4 for each used concentration) were performed. […] This indicates good or very good (in the case of 1, 3, 5, 8, 11) selectivity of action. […] Due to the dual action of these compounds, it would be advisable to study their effect on stimulation of proliferation at concentrations below 0.01 μmol/L. This dual action may be desirable during therapy, because the dosage may affect the nature of the compounds.
# The mouse fibroblast cell line L929 (Sigma-Aldrich) was grown in MEM (Minimum Essential Medium) (Biowest, Nuaillé, France) containing 10% of Fetal Bovine Serum (Biowest), 1 mmol/L sodium pyruvate (Biological Industries, Cromwell, CT, USA), 0.5 mmol/L non-essential amino acids (Sigma-Aldrich) and 100 units/mL penicillin with […] streptomycin (Biological Industries) in an incubator at 37 °C with 5% CO2. Cells were plated and grown to 80% confluence before the initiation of the assay.
# (§5) The XTT assay was used to evaluate cell metabolic activity. […] The number of viable cells is correlated with the colour intensity determined by photometric measurements. XTT (Serva, Heidelberg, Germany) was dissolved in MEM without phenol red (PAN-Biotech, Aidenbach, Germany) or DMEM without phenol red (PAN-Biotech) at a concentration of 1 mg/mL. Phenazine metosulphate (PMS) (Serva) was dissolved in phosphate-buffered saline (PBS, 5 mmol/L). PMS solution was then added to the XTT solution at a concentration of 25 μM. Investigated compounds were dissolved in dimethyl sulfoxide (DMSO) to obtain stock solutions.
# (§6) L929 and EA.hy926 cells were seeded into 96-well plates at a density of 1 × 10^4 cells per well. They were cultured for 24 h in the incubator (37 °C and 5% CO2). After that time, the medium was removed. Then the 100 µL of medium containing investigated compounds (in the range of concentration 0.01–1250 µmol/L) or only culture medium (blank control) were added. Cisplatin was used as a reference compound. Cells were further incubated for 24 h. At the third day, the old medium were removed and cells were washed with PBS. 100 µL of culture medium with the additional 50 µL of the XTT/PMS solution were added to each well. Plates were incubated in the dark for 3 h at 37 °C. Then, the plates were swayed and an aliquot of 100 µL from each well was transferred into the corresponding well of a new plate. Finally, the absorbance was measured by using the microplate reader (Synergy H1, BioTek, Winooski, VT, USA) at a wavelength of 450 nm. The cell viability was expressed as a percentage of the control values (blanks).
# [3] = system: EA.hy926 cell line (the human umbilical vein, somatic cell hybrid); assay: XTT assay, cell proliferation study; type: cell-based; details: for Stimulating effect on proliferation / IC50 / The Range of Influence [%, Control = 100%]: EA.hy926, XTT; for IC50: 24 h incubation, 0.01–1250 µmol/L; for The Range of Influence [%, Control = 100%]: viability over 0.01–1250 µmol/L; for Selectivity of action (IC50 EA.hy926 versus L929): IC50 lower for EA.hy926 than for L929
# Procedure: as §4
# The EA.hy926 cell line (the human umbilical vein, somatic cell hybrid, American Type Culture Collection, Manassas, VA, USA) was used to evaluate the cytotoxicity of novel compounds. Cells were grown in Dulbecco’s Modified Eagle’s Medium (DMEM) which contains 10% of Fetal Bovine Serum (Biowest), 2 mmol/L glutamine (Sigma-Aldrich) and 100 units/mL penicillin with […] streptomycin (Biological Industries). Cells were plated and grown in an incubator at 37 °C with 5% CO2 to 80% confluence before the initiation of the assay.
# as §5, §6
# [4] = system: Fifteen strains of microorganisms from different species; assay: Initial antimicrobial screening by disc diffusion on the whole panel; type: cell-based; details: 15 strains, discs at 100 or 200 µg/mL
# Procedure: as §1, §2, §3
# [5] = system: Staphylococcus aureus NCTC 4135; assay: Disc diffusion, inhibition of growth zones; type: cell-based; details: S. aureus; discs at 100 or 200 µg/mL, 24 h at 37 °C
# Procedure: as §1, §2, §3
# [6] = system: Streptococcus pyogenes ATCC 19615; assay: Disc diffusion, inhibition of growth zones; type: cell-based; details: S. pyogenes; discs at 100 or 200 µg/mL, 24 h at 37 °C
# Procedure: as §1, §2, §3
# [7] = system: Streptococcus pneumoniae ATCC 49619; assay: Disc diffusion, inhibition of growth zones; type: cell-based; details: S. pneumoniae; discs at 100 or 200 µg/mL, 24 h at 37 °C
# Procedure: as §1, §2, §3
# [8] = system: Neisseria meningitidis DSM 25942; assay: Disc diffusion, inhibition of growth zones; type: cell-based; details: N. meningitidis
# Procedure: as §1, §2, §3
Compound,Inhibition of growth zones (lowest effective studied concentration) [1],IC50 [2],"The Range of Influence [%, Control = 100%] [2]",Stimulating effect on proliferation [3],IC50 [3],"The Range of Influence [%, Control = 100%] [3]",Inhibition of microbial growth (result in words) [4],Inhibition of growth zones (lowest effective studied concentration) [5],Inhibition of growth zones (lowest effective studied concentration) [6],"IC50 value lower than ligand 5 ([2]; L929, complex 11 compared with ligand 5)","IC50 value lower than ligand 5 ([3]; EA.hy926, complex 11 compared with ligand 5)",Selectivity of action (IC50 EA.hy926 versus L929) [3],Stimulating effect on proliferation [2],Inhibition of growth zones (lowest effective studied concentration) [7],melting point,IC50 ([2]; Mus musculus),Influence on growth at 200 µg/mL ([8]; disc at 200 µg/mL),"Inhibition of growth zones (lowest effective studied concentration) ([8]; discs at 100 or 200 µg/mL, 24 h at 37 °C)"
"Cc1ccc(F)cc1NN=Cc1coc2ccccc2c1=O [Compound 7, 3-[(5-Fluoro-2-methylphenyl)-hydrazonomethyl]-chromen-4-one]",100 µg/mL,954 µM,44.89–96.11%,slightly stimulated,953 µM,42.43–101.05%,exhibit antimicrobial potential,,,,,,,,,,,
"O=c1c(C=NNc2ccccc2C(F)(F)F)coc2ccccc12 [Compound 10, 3-[(2-Trifluoromethylphenyl)-hydrazonomethyl]-chromen-4-one]",100 µg/mL,1210 µM,48.62–73.47%,,645 µM,31.21–94.69%,exhibit antimicrobial potential,,,,,,,,,,,
Complex of 4-Fluorobenzoic acid [1-(4-oxo-4H-chromen-3-yl)-meth-(E)-ylidene]-hydrazide with Cu (II) [Compound 11],100 µg/mL,35 µM,10.30–75.02%,,,8.58–53.23%,exhibit antimicrobial potential,100 µg/mL,200 µg/mL,46.89%,77.78%,very good,,,,,,
"O=c1c(C=NNc2cc(C(F)(F)F)cc(C(F)(F)F)c2)coc2ccccc12 [Compound 4, 3-[(3,5-Bis-trifluoromethylphenyl)-hydrazonomethyl]-chromen-4-one]",100 µg/mL,1030 µM,45.61–101.31%,weak stimulating effect,534 µM,28.46–102.18%,exhibit antimicrobial potential,,,,,,weak stimulating effect,,,,,
"O=c1c(C=NNc2cc(F)ccc2F)coc2ccccc12 [Compound 1, 3-[(2,5-Difluorophenyl)-hydrazonomethyl]-chromen-4-one]",,209 µM,27.64–101.8%,weak stimulating effect,59.1 µM,14.79–106.26%,exhibit antimicrobial potential,,,,,very good,weak stimulating effect,100 µg/mL,,,,
"O=C(N/N=C/c1coc2ccccc2c1=O)c1ccc(F)cc1 [Compound 5, 4-Fluorobenzoic acid [1-(4-oxo-4H-chromen-3-yl)-meth-(E)-ylidene]-hydrazide]",,,16.03–56.35%,,,11.81–60.64%,not able to inhibit microbial growth,,,,,very good,,,201 to 202 °C,65.9 µM,,
"N.N.[Cl][Pt][Cl] [Cisplatin, reference compound]",,74.4 µM,8.49–55.70%,,67.4 µM,8.71–75.14%,,,,,,,,,,,,
"O=c1c(C=NNc2c(F)cc(F)cc2F)coc2ccccc12 [Compound 8, 3-[(2,4,6-Trifluorophenyl)-hydrazonomethyl]-chromen-4-one]",,98.5 µM,38.11–64.40%,,18.1 µM,23.31–63.94%,not able to inhibit microbial growth,,,,,very good,,,,,,
"O=c1c(C=NNc2ccc(C(F)(F)F)cc2)coc2ccccc12 [Compound 3, 3-[(4-Trifluoromethylphenyl)-hydrazonomethyl]-chromen-4-one]",,,55.91–96.98%,slightly stimulated,975 µM,37.40–101.33%,not able to inhibit microbial growth,,,,,very good,,,,,,
"O=c1c(C=NNc2c(F)c(F)c(F)c(F)c2F)coc2ccccc12 [Compound 9, 3-(Pentafluorophenyl-hydrazonomethyl)-chromen-4-one]",,386 µM,13.92–85.11%,,253 µM,13.15–69.88%,exhibit antimicrobial potential,,,,,,,,,,not observed,100 µg/mL
"O=c1c(C=NNc2c(F)c(F)cc(F)c2F)coc2ccccc12 [Compound 6, 3-[(2,3,5,6-Tetrafluorophenyl)-hydrazonomethyl]-chromen-4-one]",,728 µM,40.05–93.11%,,578 µM,24.47–97.86%,not able to inhibit microbial growth,,,,,,,,,,,
